Data published in patent US20260015354A1, “Solid State Forms of Ensifentrine” (Cipla Limited, priority 2022, published 2026).
Values after ≈ are worked out from the molar mass of the structure shown.

Assay: Comparative solubility of crystalline forms of Ensifentrine at pH 3
Type: physicochemical
Conditions: for solubility compared to Form I: comparison in words
From the text: The solubility of Form C1 and Form I disclosed in U.S. Pat. No. 9,062,047 at pH 3 were compared.
The solubility of Form C3 and Form I disclosed in U.S. Pat. No. 9,062,047 at pH 3 was compared.

| solubility compared to Form I | solubility (time 15 min) [µg/mL] | solubility (time 30 min) [µg/mL] | solubility (time 60 min) [µg/mL] | solubility (time 120 min) [µg/mL] | solubility (time 240 min) [µg/mL] | SMILES |
| --- | --- | --- | --- | --- | --- | --- |
| better solubility compared to Form I | – | – | – | – | – | COc1cc2c(cc1OC)-c1c/c(=N\c3c(C)cc(C)cc3C)n(CCNC(N)=O)c(=O)n1CC2 [Form C1] |
| better solubility compared to Form I | 2110 (≈ 4.42 mM) | 1960 (≈ 4.1 mM) | 2000 (≈ 4.19 mM) | 2050 (≈ 4.29 mM) | 2130 (≈ 4.46 mM) | COc1cc2c(cc1OC)-c1c/c(=N\c3c(C)cc(C)cc3C)n(CCNC(N)=O)c(=O)n1CC2 [Form C3] |
| – | 1380 (≈ 2.89 mM) | 1390 (≈ 2.91 mM) | 1310 (≈ 2.74 mM) | 1350 (≈ 2.83 mM) | 1390 (≈ 2.91 mM) | COc1cc2c(cc1OC)-c1c/c(=N\c3c(C)cc(C)cc3C)n(CCNC(N)=O)c(=O)n1CC2 [Form I, reference compound] |
